From patent US20230114728A1 (Venatorx Pharmaceuticals, Inc., priority 2019, published 2023)
Converted amounts (≈) assume the structure as drawn.

Experiments:
Assay type in all cases: cell-based
A. baumannii ATCC 19606 = experiment: Broth microdilution MIC in CAMHB; conditions: Acinetobacter baumannii, ATCC19606; MHB; read-out: Minimum Inhibitory Concentration, A. baumannii ATCC 19606
Procedure, shortened: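 Per CLSI broth microdilution, colonies were grown 3-5 h at 37° C in cation-adjusted Mueller Hinton broth, then diluted to a starting inoculum of 2-8×10^5 CFU/mL against 2-fold serial compound dilutions. Plates were incubated 16-20 h at 37° C, and MIC was read visually as the lowest concentration with no growth.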

E. coli 901C = experiment: Broth microdilution MIC in CAMHB; conditions: Escherichia coli; E. coli 901C (hyper-permeable); MHB; read-out: Minimum Inhibitory Concentration, E. coli 901C
Procedure, shortened: (§1)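 MIC, read by eye, is the lowest compound concentration giving no bacterial growth after 16-20 h at 37° C. Test compounds are serially diluted 2-fold in CAMHB and seeded with 2-8×10^5 CFU/mL of bacteria taken from a 3-5 h shaking culture, following CLSI methods.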

[1] = test system: K. pneumoniae SI-117 producing VIM-1; experiment: Broth microdilution MIC in CAMHB; conditions: Klebsiella pneumoniae, read-out: Minimum Inhibitory Concentration, K. pneumoniae SI-117
Procedure, shortened: as §1

E. coli D22 = experiment: Broth microdilution MIC in CAMHB; conditions: Escherichia coli; E. coli D22 (hyper-permeable); MHB; read-out: Minimum Inhibitory Concentration, E. coli D22
Procedure, shortened: as §1

E. coli AG100 = experiment: Broth microdilution MIC in CAMHB; conditions: Escherichia coli; E. coli AG100 (wild-type parent); MHB; read-out: Minimum Inhibitory Concentration, E. coli AG100
Procedure, shortened: as §1

N. gonorrhoeae WHO Z = experiment: Liquid broth MIC in Fastidious broth; conditions: Neisseria gonorrhoeae, read-out: Minimum Inhibitory Concentration, N. gonorrhoeae WHO Z
Procedure, shortened: (§2)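 Mosaic-PBP2 strains grown 24 h on chocolate agar (36 °C, 5% CO2), then direct-suspended in saline and OD600-adjusted. Twofold compound dilutions in Fastidious broth inoculated at 5×10^5 CFU/mL and incubated ~24 h at 36 °C, 5% CO2. MIC read visually as lowest concentration with <10% growth versus full-growth wells.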

[2] = test system: N. gonorrhoeae ATCC 49226; experiment: Liquid broth MIC in Fastidious broth; conditions: Neisseria gonorrhoeae, ATCC49226; N. gonorrhoeae strain ATCC 49226; Fastidious broth; read-out: Minimum Inhibitory Concentration, N. gonorrhoeae ATCC 49226
Procedure, shortened: (§3)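 Colonies were swabbed from chocolate agar after 24 h growth and standardised by optical density at 600 nm. Compounds were serially diluted twofold in Fastidious broth, and bacteria added to give 5×10^5 CFU/mL. After about 24 h at 36 °C in 5% CO2, the lowest concentration allowing under 10% growth was taken as MIC.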

N. gonorrhoeae WHO G = experiment: Liquid broth MIC in Fastidious broth; conditions: Neisseria gonorrhoeae; N. gonorrhoeae strain WHO G; Fastidious broth; read-out: Minimum Inhibitory Concentration, N. gonorrhoeae WHO G
Procedure, shortened: as §3

N. gonorrhoeae WHO K = experiment: Liquid broth MIC in Fastidious broth; conditions: Neisseria gonorrhoeae, read-out: Minimum Inhibitory Concentration, N. gonorrhoeae WHO K
Procedure, shortened: as §2

N. gonorrhoeae H041 = experiment: Liquid broth MIC in Fastidious broth; conditions: Neisseria gonorrhoeae, H041, read-out: Minimum Inhibitory Concentration, N. gonorrhoeae H041
Procedure, shortened: as §2

N. gonorrhoeae WHO L = experiment: Liquid broth MIC in Fastidious broth; conditions: Neisseria gonorrhoeae; N. gonorrhoeae strain WHO L; Fastidious broth; read-out: Minimum Inhibitory Concentration, N. gonorrhoeae WHO L
Procedure, shortened: as §3

N. gonorrhoeae WHO Q = experiment: Liquid broth MIC in Fastidious broth; conditions: Neisseria gonorrhoeae, read-out: Minimum Inhibitory Concentration, N. gonorrhoeae WHO Q
Procedure, shortened: as §2

N. gonorrhoeae FA1090 = experiment: Liquid broth MIC in Fastidious broth; conditions: Neisseria gonorrhoeae; N. gonorrhoeae strain FA1090; Fastidious broth; read-out: Minimum Inhibitory Concentration, N. gonorrhoeae FA1090
Procedure, shortened: as §3

## O=C(O)c1c(F)ccc2c1OB(O)[C@@H](NC(=O)C(NC(=O)N1CCN(CCF)C(=O)C1=O)c1c(F)cc(O)cc1F)C2 (stereo partly drawn) [Example 129, (3R)-3-(2-(2,6-difluoro-4-hydroxyphenyl)-2-(4-(2-fluoroethyl)-2,3-dioxopiperazine-1-carboxamido)acetamido)-7-fluoro-2-hydroxy-3,4-dihydro-2H-benzo[e][1,2]oxaborinine-8-carboxylic acid]
A. baumannii ATCC 19606
  MIC: > 128 µg/mL
E. coli 901C
  MIC: 0.5 to 1 µg/mL (≈ 0.839 to 1.68 µM)
[1]
  MIC: 32 to 64 µg/mL (≈ 53.7 to 107 µM)
E. coli D22
  MIC: 2 to 4 µg/mL (≈ 3.35 to 6.71 µM)
E. coli AG100
  MIC: 32 to 64 µg/mL (≈ 53.7 to 107 µM)
N. gonorrhoeae WHO Z
  MIC: 4 to 8 µg/mL (≈ 6.71 to 13.4 µM)
[2]
  MIC: 16 to 32 µg/mL (≈ 26.8 to 53.7 µM)
N. gonorrhoeae WHO G
  MIC: 4 to 8 µg/mL (≈ 6.71 to 13.4 µM)
N. gonorrhoeae WHO K
  MIC: 16 to 32 µg/mL (≈ 26.8 to 53.7 µM)
N. gonorrhoeae H041
  MIC: 16 to 32 µg/mL (≈ 26.8 to 53.7 µM)
N. gonorrhoeae WHO L
  MIC: > 64 µg/mL
N. gonorrhoeae WHO Q
  MIC: 16 to 32 µg/mL (≈ 26.8 to 53.7 µM)
N. gonorrhoeae FA1090
  MIC: 1 to 2 µg/mL (≈ 1.68 to 3.35 µM)

## CCN1CCN(C(=O)NC(C(=O)N[C@H]2Cc3ccc(F)c(C(=O)O)c3OB2O)c2c(F)cc(O)cc2F)C(=O)C1=O (stereo partly drawn) [Example 130, (3R)-3-(2-(2,6-difluoro-4-hydroxyphenyl)-2-(4-ethyl-2,3-dioxopiperazine-1-carboxamido)acetamido)-7-fluoro-2-hydroxy-3,4-dihydro-2H-benzo[e][1,2]oxaborinine-8-carboxylic acid]
A. baumannii ATCC 19606
  MIC: > 128 µg/mL
E. coli 901C
  MIC: < 0.25 µg/mL
[1]
  MIC: 32 to 64 µg/mL (≈ 55.3 to 111 µM)
E. coli D22
  MIC: 2 to 4 µg/mL (≈ 3.46 to 6.92 µM)
E. coli AG100
  MIC: 32 to 64 µg/mL (≈ 55.3 to 111 µM)
N. gonorrhoeae WHO Z
  MIC: 4 to 8 µg/mL (≈ 6.92 to 13.8 µM)
[2]
  MIC: 4 to 8 µg/mL (≈ 6.92 to 13.8 µM)
N. gonorrhoeae WHO G
  MIC: 4 to 8 µg/mL (≈ 6.92 to 13.8 µM)
N. gonorrhoeae WHO K
  MIC: 16 to 32 µg/mL (≈ 27.7 to 55.3 µM)
N. gonorrhoeae H041
  MIC: 16 to 32 µg/mL (≈ 27.7 to 55.3 µM)
N. gonorrhoeae WHO L
  MIC: > 64 µg/mL
N. gonorrhoeae WHO Q
  MIC: 16 to 32 µg/mL (≈ 27.7 to 55.3 µM)
N. gonorrhoeae FA1090
  MIC: 1 to 2 µg/mL (≈ 1.73 to 3.46 µM)

## CCN1CCN(C(=O)NC(C(=O)N[C@H]2Cc3cccc(C(=O)O)c3OB2O)c2cc(F)c(C(=O)O)cc2F)C(=O)C1=O (stereo partly drawn) [Example 137, (3R)-3-(2-(4-carboxy-2,5-difluorophenyl)-2-(4-ethyl-2,3-dioxopiperazine-1-carboxamido)acetamido)-2-hydroxy-3,4-dihydro-2H-benzo[e][1,2]oxaborinine-8-carboxylic acid]
A. baumannii ATCC 19606
  MIC: > 128 µg/mL
E. coli 901C
  MIC: < 0.25 µg/mL
[1]
  MIC: > 128 µg/mL
E. coli D22
  MIC: 8 to 16 µg/mL (≈ 13.6 to 27.2 µM)
E. coli AG100
  MIC: 32 to 64 µg/mL (≈ 54.4 to 109 µM)
N. gonorrhoeae WHO Z
  MIC: 4 to 8 µg/mL (≈ 6.8 to 13.6 µM)
[2]
  MIC: 1 to 2 µg/mL (≈ 1.7 to 3.4 µM)
N. gonorrhoeae WHO G
  MIC: 1 to 2 µg/mL (≈ 1.7 to 3.4 µM)
N. gonorrhoeae WHO K
  MIC: 4 to 8 µg/mL (≈ 6.8 to 13.6 µM)
N. gonorrhoeae H041
  MIC: 16 to 32 µg/mL (≈ 27.2 to 54.4 µM)
N. gonorrhoeae WHO L
  MIC: 16 to 32 µg/mL (≈ 27.2 to 54.4 µM)
N. gonorrhoeae WHO Q
  MIC: 4 to 8 µg/mL (≈ 6.8 to 13.6 µM)
N. gonorrhoeae FA1090
  MIC: 0.25 to 0.5 µg/mL (≈ 0.425 to 0.85 µM)

## CCN1CCN(C(=O)NC(C(=O)N[C@H]2Cc3cccc(C(=O)O)c3OB2O)c2cc(Cl)c(C(=O)O)cc2F)C(=O)C1=O (stereo partly drawn) [Example 138, (3R)-3-(2-(4-carboxy-5-chloro-2-fluorophenyl)-2-(4-ethyl-2,3-dioxopiperazine-1-carboxamido)acetamido)-2-hydroxy-3,4-dihydro-2H-benzo[e][1,2]oxaborinine-8-carboxylic acid]
A. baumannii ATCC 19606
  MIC: > 128 µg/mL
E. coli 901C
  MIC: < 0.25 µg/mL
[1]
  MIC: > 128 µg/mL
E. coli D22
  MIC: 2 to 4 µg/mL (≈ 3.31 to 6.61 µM)
E. coli AG100
  MIC: 32 to 64 µg/mL (≈ 52.9 to 106 µM)
N. gonorrhoeae WHO Z
  MIC: 4 to 8 µg/mL (≈ 6.61 to 13.2 µM)
[2]
  MIC: 4 to 8 µg/mL (≈ 6.61 to 13.2 µM)
N. gonorrhoeae WHO G
  MIC: 1 to 2 µg/mL (≈ 1.65 to 3.31 µM)
N. gonorrhoeae WHO K
  MIC: 16 to 32 µg/mL (≈ 26.5 to 52.9 µM)
N. gonorrhoeae H041
  MIC: 16 to 32 µg/mL (≈ 26.5 to 52.9 µM)
N. gonorrhoeae WHO L
  MIC: 16 to 32 µg/mL (≈ 26.5 to 52.9 µM)
N. gonorrhoeae WHO Q
  MIC: 4 to 8 µg/mL (≈ 6.61 to 13.2 µM)
N. gonorrhoeae FA1090
  MIC: < 0.125 µg/mL

## CCN1CCN(C(=O)NC(C(=O)N[C@H]2Cc3cccc(C(=O)O)c3OB2O)c2cc(F)c(C(=O)O)c(F)c2)C(=O)C1=O (stereo partly drawn) [Example 141, (3R)-3-(2-(4-carboxy-3,5-difluorophenyl)-2-(4-ethyl-2,3-dioxopiperazine-1-carboxamido)acetamido)-2-hydroxy-3,4-dihydro-2H-benzo[e][1,2]oxaborinine-8-carboxylic acid]
A. baumannii ATCC 19606
  MIC: > 128 µg/mL
E. coli 901C
  MIC: < 0.25 µg/mL
[1]
  MIC: > 128 µg/mL
E. coli D22
  MIC: 2 to 4 µg/mL (≈ 3.4 to 6.8 µM)
E. coli AG100
  MIC: 32 to 64 µg/mL (≈ 54.4 to 109 µM)
N. gonorrhoeae WHO Z
  MIC: 1 to 2 µg/mL (≈ 1.7 to 3.4 µM)
[2]
  MIC: 1 to 2 µg/mL (≈ 1.7 to 3.4 µM)
N. gonorrhoeae WHO G
  MIC: 0.25 to 0.5 µg/mL (≈ 0.425 to 0.85 µM)
N. gonorrhoeae WHO K
  MIC: 1 to 2 µg/mL (≈ 1.7 to 3.4 µM)
N. gonorrhoeae H041
  MIC: 4 to 8 µg/mL (≈ 6.8 to 13.6 µM)
N. gonorrhoeae WHO L
  MIC: 4 to 8 µg/mL (≈ 6.8 to 13.6 µM)
N. gonorrhoeae WHO Q
  MIC: 1 to 2 µg/mL (≈ 1.7 to 3.4 µM)
N. gonorrhoeae FA1090
  MIC: < 0.125 µg/mL
